Assay: Franz diffusion cell skin penetration assay
Assay type: in vitro ADME, human
Settings: for pal-KT Skin Penetration: Surface Residual / pal-KT Skin Penetration: Dermis / pal-KT Skin Penetration: Epidermis / pal-KT Skin Penetration: Total Penetration / pal-KT Skin Penetration: Receptor: pal-KT 5 ppm; for pal-KT Skin Penetration: Surface Residual: 14C-spiked, 24 h after topical dose on human skin; for pal-KT Skin Penetration: Total Penetration: epidermis+dermis+receptor; for pal-KT Skin Penetration: Receptor: receptor solution (transdermal)
Description: The method is described. […] (40 ppm) is assessed using the Franz diffusion cell assay (4, T. J. Franz, J. Invest. Dermatol. 64: 190-195, 1975; T. J. Franz, et al., Skin Pharmacol. Physiol. 22: 276-286, 2009). The peptides are formulated in a skin care silicone-in-water (SWF) formulation with or without 10 wt % SACRAN. The formulations are spiked with ^14C-pal-KT or ^3H-PKEK. Twenty-four hours after topically dosed on human skin, residual product is removed from the skin surface, the epidermal and dermal layers were separated, and receptor solutions (transdermal) are collected.

[1] = SWF + 10 wt % SACRAN versus SWF, 24 h, human skin
[2] = SWF formulation without SACRAN (control), 24 h

- amount recovered from the surface of the skin with SACRAN versus without (in words) [1]: statistically significant lower amount
- effect of addition of SACRAN on skin penetration (in words) [1]: increased
- pal-KT Skin Penetration: Surface Residual (SWF + 10 wt % SACRAN): 173.2 ± 18.1 ng/cm^2
- pal-KT Skin Penetration: Dermis (SWF + 10 wt % SACRAN, 24 h): 14.8 ± 1.65 ng/cm^2
- pal-KT Skin Penetration: Epidermis (SWF + 10 wt % SACRAN, 24 h): 128.3 ± 17.1 ng/cm^2
- pal-KT Skin Penetration: Total Penetration (SWF + 10 wt % SACRAN, 24 h): 143.3 ± 18.1 ng/cm^2
- pal-KT Skin Penetration: Receptor (SWF + 10 wt % SACRAN, 24 h): 0.09 ± 0.07 ng/cm^2
- increase in skin penetration by addition of SACRAN to SWF (SWF + SACRAN versus SWF, single topical application): 60%
- pal-KT Skin Penetration: Surface Residual (SWF formulation without SACRAN (control)): 228.5 ± 10.2 ng/cm^2
- pal-KT Skin Penetration: Dermis [2]: 14.3 ± 1.4 ng/cm^2
- pal-KT Skin Penetration: Epidermis [2]: 72.5 ± 9.5 ng/cm^2
- pal-KT Skin Penetration: Total Penetration [2]: 88.0 ± 10.2 ng/cm^2
- pal-KT Skin Penetration: Receptor [2]: 0.14 ± 0.14 ng/cm^2
SMILES: CCCCCCCCCCCCCCCC(=O)N[C@@H](CCCCN)C(=O)N[C@H](C(=O)O)[C@@H](C)O [pal-KT, palmitoyl-lysine-threonine]

From US11311475B2, “Skin care compositions containing peptide compound and aphanothece sacrum exopolysaccharide extract” (The Procter & Gamble Company, priority 2019, dated 2022)
